Values after ≈ are worked out from the molar mass of the structure shown.
Test system: Mycobacterium tuberculosis
Experiment: Antimicrobial activity against multidrug resistant Mycobacterium tuberculosis
Format: functional

## C/C=C1/CN2CC[C@@]34c5ccccc5N5/C=C6/[C@H]7C[C@@H]8N(CC[C@@]89c8ccccc8N(/C=C(/[C@H]1C[C@H]23)[C@H]54)[C@@H]69)C/C7=C/C [BISNORDIHYDROTOXIFERINE]
  MIC: 6.25 µg/mL (≈ 11.3 µM)

Source: ChEMBL document CHEMBL1144690, “Isolation of cytotoxic metabolites from targeted peruvian amazonian medicinal plants” (2008)
